US7427391B2, “Formulations for use in medical and diagnostic procedures” (priority 2001, dated 2008)

Tests used:
Format in all cases: in vivo, human
[1] = Incidence of diarrhea in patients given contrast agent; conditions: administered alone as a contrast agent
Description: Further, it has been discovered that the formulations disclosed herein have the unexpected benefit of reducing incidents of diarrhea among patients. For example, when mannitol alone is administered as a contrast agent, approximately 99% of patients experience diarrhea, sometimes in severe form. As a result, the patient's health and/or hydration may be affected, and the exam may be compromised. […] It is believed that this is due to the thickening properties of the stabilizing agent. Accordingly, due to the patient not having to use the bathroom during the procedure, for example, the medical or diagnostic procedure can be performed with less patient discomfort and with less interference. Additionally, patient compliance with the medical or diagnostic procedure is increased due to decreased complications with the procedure.

[2] = Side-effect questionnaire (diarrhea, nausea) 24 hours after MR examination (Example 4)
Description: Twenty-four hours after each MR examination, volunteers were asked by a standardized questionnaire based on a three-point scale (0=no side-effects, 1=mild side-effects, 2=severe side-effects) if either diarrhea or nausea have occurred in association with the contrast ingestion.

small bowel [3] = assay: MR (TrueFISP) measurement of small bowel loop diameters after 1500 ml oral contrast solution (Example 4); conditions: for Mean small bowel diameter / Mean small bowel diameter, AV (average of all six volunteer examinations): 1500 ml orally over 45 minutes; for Mean small bowel diameter: MR TrueFISP; for Mean small bowel diameter, AV (average of all six volunteer examinations): average of six volunteers; for Small bowel distension, comparison in words: six volunteers, paired t-test, p<0.01
Description: Six healthy volunteers (three female and three male; age range 21-28 years) without known contraindications to MR imaging were included in this study, which was conducted in accordance with all guidelines set forth by the approving institutional review board. Presence of gastrointestinal disease, previous abdominal surgery and symptoms of gastrointestinal disorders such as post-prandiol belching, nausea or early satiety were excluded. Each volunteer was examined on five different occasions. […] The LBG and Metamucil concentrations were chosen as high as possible within the confines of an unproblematic ingestion regarding viscosity and flavor, while choice of the mannitol concentration was based on previous studies. To assure homogenization of bowel activity, all exams were performed following 8 hour fasts. Prior to each exam, 1500 ml of the respective contrast solution were orally ingested over 45 minutes at a steady, evenly distributed rate. To ensure a consistent ingestion, volunteers were asked to drink 150 ml every four to five minutes. To enhance gastric emptying, 100 mg erythromycin (Abbott Pharmaceutics, Wiesbaden, Germany) were administered intravenously directly after the ingestion of the first 150 ml of the contrast solution. […] For signal reception a large ‘flex surface coils’ was used. Prior to the data acquisition neither spasmolytic agents nor paramagnetic contrast compounds were intravenously applied. […] Other sequence parameters included a field of view 35 cm, a slice thickness of 7 mm (25 slices) and an acquisition time of 24 seconds. Matrix size was 144×256, inter section gap amounted to 1 mm and the number of excitation was one. All 30 MR examinations were of diagnostic image quality. 1500 ml of each solution was ingested within the target time of 45 minutes. Images were quantitatively analyzed independently by two radiologists, who were blinded to the type of oral contrast employed. […] For the measurements bowel loops with maximal diameter were chosen. […] Subsequent analysis was based on mean small bowel diameters and their standard deviations. The effects of the analyzed oral contrast agents concerning small bowel distension were compared by a paired t-test. For the adaptation to multiple samples, a Bonferoni-correction was used.

small bowel [4] = assay: Blinded qualitative rating of bowel distension on MR images by five radiologists (Example 4); conditions: six volunteers; consensus of five blinded radiologists
Description: For a qualitative assessment, MR images of all 5 examinations for each volunteer were presented as hardcopies in a randomized and blinded fashion to five radiologists. They were asked to rate the images regarding bowel distention in an ascending order for each volunteer. The qualitative assessment was done by consensus.

small bowel [5] = assay: MR imaging of small bowel after oral contrast solutions (Examples 1-3); conditions: oral application, FIGS. 1-9
Description: Ten healthy volunteers with no history of gastrointestinal disorder underwent MR imaging following an eight hour fast. The examination was repeated on four different days using different osmotic substances in a randomized order: water, water spiked with mannitol (2.5%), Metamucil (0.7%) or locust bean gum (0.2%). Concentrations of the additives were chosen to avoid side-effects such as diarrhea.
Forty-five minutes prior to the examination, 50 mg of Erythromycin was applied intravenously to increase gastric emptying and the volunteers started ingesting the respective contrast substance. Coronal 2D measurements were performed in the prone patient position with a TRUFISP sequence (TR/TE/flip 3.2/1.6/70°) using 1.5 T scanner (Sonata, Siemens). The acquisition time amounted to 16 sec. Small bowel filling was quantified in two different ways: (1) determination of small bowel fluid by automatically measuring all pixels meeting the signal intensity of water, and (2) assessment of small bowel distension by manual measurement of 15 small bowel diameters and calculating an average value.

stomach and small bowel = assay: CT-PET measurement of stomach, jejunum and ileum diameters in oncologic patients (Example 5); conditions: 20 oncologic patients per agent
Description: CT-PET examinations of 60 oncologic patients were performed on a combined CT-PET tomograph. Three different oral contrast agents were randomly assigned to 20 patients each: barium, water, and a solution of 2.5% mannitol and 0.2% locust bean gum (LBG). To compare the bowel distension abilities of the three agents, representative diameters each of the stomach, the jejunum and the ileum were measured by two radiologists. PET images were evaluated qualitatively for areas of increased bowel FDG uptake based on a four-point scale as well as quantitatively by determination of standard uptake values (SUV). To assess the effect of the different contrast agents onto the tracer activity concentration phantom measurements were performed.
Table 3 Intestinal distension of the stomach, the jejunum, and the ileum induced by the contrast agents under investigation as well as SUV of the small intestine in the presence of the different contrast materials. Statistical significance was determined by unpaired Student's test based on 200 measurements each for the stomach, the jejunum, the ileum, and the SUV. Thus, a total of 800 measurements were performed for every contrast agent under investigation.

| SMILES | Patients experiencing diarrhea [1] | Diarrhea, in words ([2]; of the three evaluated substances) | Diarrhea as side effect, volunteers reporting ([2]; six volunteers, questionnaire 24 hours after MR examination) | Mean small bowel diameter (small bowel [3]; Volunteer #1) [mm] | Mean small bowel diameter (small bowel [3]; Volunteer #2) [mm] | Mean small bowel diameter (small bowel [3]; Volunteer #3) [mm] | Mean small bowel diameter (small bowel [3]; Volunteer #4) [mm] | Mean small bowel diameter (small bowel [3]; Volunteer #5) [mm] | Mean small bowel diameter (small bowel [3]; Volunteer #6) [mm] | Mean small bowel diameter, AV (average of all six volunteer examinations) (small bowel [3]) [mm] | Small bowel distension, comparison in words (small bowel [3]) | Qualitative assessment of small bowel distension (rating) (small bowel [4]) | Diagnostic performance / lumen distention, in words (small bowel [5]) | Intestinal distension of the ileum, Mean (stomach and small bowel) | Intestinal distension of the jejunum, Mean (stomach and small bowel) | Intestinal distension of the stomach, Mean (stomach and small bowel) |
| --- | --- | --- | --- | --- | --- | --- | --- | --- | --- | --- | --- | --- | --- | --- | --- | --- |
| OC[C@@H](O)[C@@H](O)[C@H](O)[C@H](O)CO [Mannitol, mannitol] | approximately 99% | consistently resulted in diarrhea | 2 of 6 | 23.7 | 22.9 | 19.2 | 19.3 | 22.9 | 19.6 | 21.3 | superior to Metamucil | in four volunteers mannitol was rated better | – | – | – | – |
| O [Water, water] | – | – | – | 13.6 | 15.0 | 12.4 | 14.6 | 12.6 | 11.8 | 13.3 | significantly less small bowel distension | rated poorest | does not achieve acceptable or diagnostic results | 1.4 | 1.6 | 6.1 |
